Laboratory results reported in patent US20100267742A1, “COMBINATION TARGETED THERAPY FOR LUNG CANCER” (RUSH UNIVERSITY MEDICAL CENTER, priority 2009, published 2010).
“Also recorded” adds a separate entry of the source.

Legend:
Assay type in all cases: cell-based, human
Calu3 cells = test: Cell proliferation / cell survival (viability) assay, Calcein-AM, 72 hours; conditions: for cell survival / cell viability / sensitivity: Calu3, 72 hours in culture, serum-starved; for effect on cell number (3-factor ANOVA): Calu3 cell line, no EGFR mutation, alone or in combination
Method: (§1) Lysates were prepared for immunoprecipitation and Western blotting from serum-starved Calu3 and H1975 cell lines after incubation with kinase inhibitors, including enzastaurin for PKCβ, and SU11274 for c-met. Specific site directed anti-phospho-antibodies were used to probe Western blots to determine the effect of respective inhibitors on downstream kinase activation. Proliferation and cell viability assays were performed with 10,000 cells seeded into 96-well plates and incubated with inhibitors in serum-starved cultures for 72 hours. Cell viability was determined by the addition of Calcein-AM (calcein-acetoxymethyl ester, diacetate) for the final 2 hours and plates were read at 515 nm. Lung carcinoma cell lines: H1975 and Calu-3 were cultured following ATCC guidelines. Cells are removed from flasks with cell dissociation buffer in PBS.

H1975 cells = test: as above; conditions: H1975 cell line, two EGFR mutations, alone or in combination
Method: as §1

[1] = system: kinase and receptor phosphorylation in Calu3 cells; test: Western blot with anti-phospho antibodies on lysates of serum-starved cells; conditions: for Akt (ser473) phosphorylation / EGFR (Y1068) phosphorylation: low doses alone versus combination
Method: (§2) Lysates were prepared for immunoprecipitation and Western blotting from serum-starved Calu3 and H1975 cell lines after incubation with kinase inhibitors, including enzastaurin for PKCβ, and SU11274 for c-met. Specific site directed anti-phospho-antibodies were used to probe Western blots to determine the effect of respective inhibitors on downstream kinase activation. Proliferation and cell viability assays were performed with 10,000 cells seeded into 96-well plates and incubated with inhibitors in serum-starved cultures for 72 hours. Cell viability was determined by the addition of Calcein-AM (calcein-acetoxymethyl ester, diacetate) for the final 2 hours and plates were read at 515 nm. Antibodies: Anti-EGFR, antiphospho-EGFR (Tyr845), anti-phospho-EGFR (Tyr1068), anti-phospho-Akt (Ser473), anti phospho-Erk1,2 (Thr202/Tyr204), anti-phospho-PKCα,β) were purchased from Cell Signaling. Cell cultures: Cells were serum starved for 18-24 hours prior to incubation with kinase inhibitors. Enzastaurin was added for a minimum of 3.5 hours of culture and SU11274 for at least one hour before preparation of lysates. Cell lysates: Media were removed from confluent monolayers of cells immediately before addition of lysis buffer (1 μg/ml aprotinin, 1 μg/ml leupeptin, 200 μM sodium vanadate (NaVO4), 0.1% NP-40, […], 20 mM EDTA, 1 mM PMSF in 50 mM Tris-HCl (pH 7.5). Cells were harvested and sonicated in lysis buffer. After 15 minutes on ice, lysates were microcentrifuged for 20 minutes. Supernatants were removed and protein concentrations therein determined spectrophotometrically with protein detection reagent. Western blots: 10-30 μg of lysate were mixed with loading buffer and boiled before loading into 7.5% Tris-HCl pre-cast SDS-PAGE gels for electrophoresis in SDS-glycine buffer for 90 minutes. Separated proteins were transferred from the gel to Hybond ECL nitrocellulose membrane using a Trans-Blot SD semi-dry transfer cell apparatus. The transfer ran at 20 volts for 35-40 minutes. Nitrocellulose membranes were washed in 1×Tris Buffered Saline-0.1% Tween 20 (TBS-T) then blocked with 5% BSA or 5% milk in TBS-T on rotator for one hour at room temperature or overnight at 4° C. 0.2% Sodium Azide (NaN3) was added to all blocking and primary antibody solutions. Nitrocellulose membranes were probed with 1:1000 or 1:2000 primary antibody.

[2] = system: kinase phosphorylation in H1975 cells; test: as above
Method: as §2

Compound | cell survival / cell viability / sensitivity (Calu3 cells) | effect on cell number (3-factor ANOVA) (Calu3 cells; listed as SU) | effect on cell number (3-factor ANOVA) (H1975 cells; listed as SU) | Akt (ser473) phosphorylation ([1]; Calu3) | EGFR (Y1068) phosphorylation ([1]; Calu3) | effect on cell number (3-factor ANOVA) (Calu3 cells; listed as Enzo 150) | effect on cell number (3-factor ANOVA) (H1975 cells; listed as Enza150) | effect on cell number (3-factor ANOVA) (H1975 cells; listed as Enzo150) | c-met phosphorylation ([1]; Calu3) | erbB3 phosphorylation ([1]; Calu3) | phosphorylation of PKC family members (pan-antibody against common phosphorylation sites) ([1]; Calu3) | sic phosphorylation ([1]; Calu3) | PKCαβ phosphorylation ([1]; Calu3, 3.5 hours in culture, serum-free medium) | sic phosphorylation ([2]; H1975) | PKCαβ phosphorylation ([2]; H1975, short-term incubation, serum-free medium)
Cc1[nH]c(/C=C2\C(=O)Nc3ccc(S(=O)(=O)N(C)c4cccc(Cl)c4)cc32)c(C)c1C(=O)N1CCN(C)CC1 [SU11274] | significantly decreases the numbers of NSCLC cells | significant effect | neither SU nor Enzo150 alone has a significant effect; also recorded: not significantly effective | only minimal effects | only minimal effects |  |  |  |  |  |  |  |  |  | 
Cn1cc(C2=C(c3cn(C4CCN(Cc5ccccn5)CC4)c4ccccc34)C(=O)NC2=O)c2ccccc21 [enzastaurin] | greatest sensitivity; also recorded: significantly decreases the numbers of NSCLC cells |  |  | only minimal effects | only minimal effects | significant effect | not significantly effective | neither SU nor Enzo150 alone has a significant effect | decreased | decreased | does not inhibit phosphorylation of all PKC family members | substantially decreased | dose dependent inhibition; also recorded: inhibited | only a moderate effect | inhibited
